# Assays:
# human carcinoma cells = assay: Colony formation assay of β-lapachone combined with Taxol®; type: cell-based; settings: 4 h exposure, colonies scored after 10–20 days; ovarian, breast, prostate, melanoma, lung and pancreatic cell lines, FIG. 4
# Protocol: In these studies, exponentially growing cells were seeded at 1,000 cells per well in six-well plates and allowed to attach for 48 h. β-lapachone and/or Taxol®, solubilized in DMSO, were added to the wells. Control wells were treated with equivalent volumes of DMSO. After 4 h cells were rinsed and fresh medium was added. Cultures were observed daily for 10–20 days and then were fixed and stained. Colonies of greater than 30 cells were scored as survivors.
# [1] = test system: Human ovarian cancer cells (36M2); assay: Human ovarian cancer xenograft model, β-lapachone in Lipiodol and Taxol®; type: in vivo, athymic female nude mice; settings: i.p., 10 cycles
# Protocol: Human ovarian cancer cells (36M2, originally isolated from malignant ascites) were inoculated by i.p. injection into athymic female nude mice 24 h after irradiation. In this model, metastatic foci form approximately 1 week after inoculation, and tumor nodules of the peritoneum and malignant ascites develop in 4–5 weeks. Ten days after tumor inoculation (10×10^6 cells), treatment regimens were initiated. The control group was treated with vehicle alone. In each typical treatment cycle, the β-lapachone alone group was treated with 25–50 mg/kg i.p. of β-lapachone in Lipiodol solution and the Taxol® alone group was treated at 1 mg/kg i.p. (Taxol® formulation diluted in Lipiodol), both followed 24 h later by i.p. injection of vehicle. In the combination group, nude mice were treated with β-lapachone at 25–50 mg/kg, followed 24 h later by Taxol® at 1 mg/kg. All groups were treated for 10 cycles, with a 1-day break between each cycle. […] Host toxicity was evaluated by general appearance and body weight.
# A2780DDP = settings: stated as typical value, read-out: IC50 concentration; cited from earlier work
SMILES,inhibition of cancer cell survival (colony formation) (human carcinoma cells),"decrease in tumor number versus control ([1]; assessed day 50, β-lapachone 25–50 mg/kg in Lipiodol, Taxol® 1 mg/kg) [%]",size of the tumor nodules and amount of ascites ([1]; laparotomy at day 50),IC50 (A2780DDP) [µM]
"CC(=O)O[C@H]1C(=O)[C@@]2(C)[C@H]([C@H](OC(=O)c3ccccc3)[C@]3(O)C[C@H](OC(=O)[C@H](O)[C@@H](NC(=O)c4ccccc4)c4ccccc4)C(C)=C1C3(C)C)[C@]1(OC(C)=O)CO[C@@H]1C[C@@H]2O [Taxol®, paclitaxel, reference compound]",much less effective,~60,considerable reduction in the size of the tumor nodules and the amount of ascites,
N.N.[Cl][Pt][Cl] [cisplatin],,,,> 100

# Source: patent US7074824B2, “Pharmaceutical compositions containing beta-lapachone, or derivatives or analogs thereof, and methods of using same” (Arqule, Inc., priority 2001, dated 2006)
